Assay results: US9233961B2, “Compounds and compositions for the treatment of parasitic diseases” (Novartis AG, priority 2013, dated 2016)

What was measured:
[1] = system: Leishmania donovani axenic amastigote parasites; test: Leishmania donovani axenic amastigote proliferation assay; type: cell-based; conditions: axenic amastigotes in vitro, read-out: L. donovani amastigotes EC50
Summary of the method: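 EC50 values come from CellTiter-Glo luminescence after 2-day compound exposure of axenic amastigotes (9600 per well) at 37 °C, 5% CO2. Medium: RPMI 1640, 20% heat-inactivated FBS, folic acid, adenosine, D-glucose, 25 mM MES, adjusted to pH 5.5.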

[2] = system: L. donovani HU3 strain in mouse peritoneal macrophages; test: Assay for proliferation of Leishmania parasites in mouse peritoneal macrophages; type: cell-based, Leishmania donovani; conditions: Leishmania donovani, Peritoneal macrophage, read-out: L. donavani Macrophage EC50
Summary of the method: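 EC50 derives from counting SYBR Green-stained parasite nuclei by high-content imaging after 5 days' compound exposure. Host cells were uninfected BALB/c peritoneal macrophages, infected for 24 h before dosing with spleen-derived L. donovani HU3 parasites from mice infected 9–11 weeks.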

[3] = system: Trypanosoma brucei Lister 427 strain bloodstream form; test: Assay for proliferation of kinetoplastid parasite Trypanosoma brucei; type: cell-based; conditions: Lister 427 bloodstream form, 48 hours, read-out: T. brucei EC50
Excerpt: Assay for Proliferation of Kinetoplastid Parasite Trypanosoma brucei.
The proliferation is quantified by the addition of Cell Titer Glo (Promega®) a luminescent cell viability assay that measures the number of viable cells in culture based on the quantification of cellular ATP amount, which is an indicator of metabolically active cells.
The following assay illustrates the invention without in any way limiting the scope of the invention. This parasite proliferation assay measures the increase in parasite growth using an assay that measures ATP activity, Cell Titer Glo®.
Trypanosoma brucei Lister 427 strain is grown in HMI-9 Trypanosome media for T. brucei bloodstream form. 30 μl of HMI-9 media is dispensed into 384 well assay plates. 200 nl of compounds of the invention (in DMSO), including anti-trypanosome controls (Pentamidine and suramin), are then transferred into the assay plates, as well as DMSO alone to serve as a negative control for inhibition. Then 25 μl of a suspension of T. brucei culture in HMI-9 media is dispensed into the assay plates. The final concentration of parasites in culture corresponds to 1.7% of 0.5 uM ATP activity with Cell Titer Glo® in HMI-9 media. The plates are placed in a 37° C. incubator for 48 hours in an atmospheric environment containing 5% CO2. 40 μl of Cell Titer Glo® is dispensed into the plates. The plates are then read for luminescence. The percentage inhibition of 50%, EC50, is calculated for each compound.

Cc1cnc2nc(-c3cc(NC(=O)N4CCOCC4)ccc3Cl)[nH]c2c1 [Example 237, N-(4-chloro-3-{6-methyl-1H-imidazo[4,5-b]pyridin-2-yl}phenyl)morpholine-4-carboxamide]
EC50 [1]: > 25 µM | EC50 [2]: > 50 µM | EC50 [3]: 8.7 µM

O=C(Nc1ccc(Cl)c(-c2nc3ncc(-c4ccc(OCCN5CCCCC5)cc4)cc3[nH]2)c1)c1ccco1 [Compound 21]
EC50 [1]: 16 µM | EC50 [2]: 2.8 µM | EC50 [3]: 0.063 µM

Cc1cnc2nc(-c3cc(NS(=O)(=O)N4CCCCC4)ccc3Cl)[nH]c2c1 [Compound 254]
EC50 [1]: > 25 µM | EC50 [2]: > 50 µM | EC50 [3]: > 25 µM

CC(C)N1CCN(c2ccc(-c3cnc4nc(-c5cc(NC(=O)c6ccco6)ccc5Cl)[nH]c4c3)cc2)CC1 [Compound 62]
EC50 [1]: 19.2 µM | EC50 [2]: 9.4 µM | EC50 [3]: 0.52 µM

Cc1cnc2nc(-c3cc(Nc4ccc(N5CCOCC5)cn4)ccc3Cl)[nH]c2c1 [Compound 260]
EC50 [1]: > 25 µM | EC50 [2]: 29.3 µM | EC50 [3]: 17.7 µM

Cc1cnc2nc(-c3cc(NC(=O)OCC(C)C)ccc3Cl)[nH]c2c1 [Compound 220]
EC50 [1]: 7.4 µM | EC50 [2]: 17.3 µM | EC50 [3]: 1.66 µM

Cc1cnc2nc(-c3cc(NC(=O)Cc4ccc(OC(F)(F)F)cc4)ccc3Cl)[nH]c2c1 [Compound 121]
EC50 [1]: > 25 µM | EC50 [2]: > 21.2 µM | EC50 [3]: > 17.3 µM

Cc1cnc2nc(-c3cc(NC(=O)C(C)c4ccc(F)cc4)ccc3Cl)[nH]c2c1 (stereo not drawn) [Compound 119]
EC50 [1]: > 25 µM | EC50 [2]: 24.2 µM | EC50 [3]: > 16.2 µM

Cc1cnc2nc(-c3cc(NC(=O)N4CCNC4=O)ccc3Cl)[nH]c2c1 [Compound 246]
EC50 [1]: > 25 µM | EC50 [2]: > 50 µM | EC50 [3]: > 25 µM

Cc1cnc2nc(-c3cc(NC(=O)c4cc(C)on4)ccc3Cl)[nH]c2c1 [Compound 79]
EC50 [1]: > 25 µM | EC50 [2]: > 50 µM | EC50 [3]: 12.5 µM

Cc1cnc2nc(-c3cc(NC(=O)c4cccc5c4OCC5)ccc3Cl)[nH]c2c1 [Compound 180]
EC50 [1]: > 25 µM | EC50 [2]: 13.2 µM | EC50 [3]: 8.3 µM

Cc1cnc2nc(-c3cc(NC(=O)C4Cc5ccccc5O4)ccc3Cl)[nH]c2c1 (stereo not drawn) [Compound 123]
EC50 [1]: 20.3 µM | EC50 [2]: > 50 µM | EC50 [3]: 4.1 µM

Cc1ccc(Nc2ccc(Cl)c(-c3nc4ncc(C)cc4[nH]3)c2)nc1 [Compound 262]
EC50 [1]: > 25 µM | EC50 [2]: 13.5 µM | EC50 [3]: > 22.4 µM

Cc1cnc2nc(-c3cc(NC(=O)c4ccc(-c5cnccn5)cn4)ccc3Cl)[nH]c2c1 [Compound 166]
EC50 [1]: > 25 µM | EC50 [2]: > 27.8 µM | EC50 [3]: > 25 µM

O=C(Nc1ccc(Cl)c(-c2nc3ncc(C(F)(F)F)cc3[nH]2)c1)C1CCCC1 [Compound 282]
EC50 [1]: 17.5 µM | EC50 [2]: 3.3 µM | EC50 [3]: 11.2 µM

Cc1cnc2nc(-c3cc(NC(=O)Cc4nnn[nH]4)ccc3Cl)[nH]c2c1 [Compound 169]
EC50 [1]: > 25 µM | EC50 [2]: > 50 µM | EC50 [3]: > 25 µM

N#Cc1cnc2nc(-c3cc(NC(=O)c4ccco4)ccc3Cl)[nH]c2c1 [Example 286, N-(4-chloro-3-{6-cyano-1H-imidazo[4,5-b]pyridin-2-yl}phenyl)furan-2-carboxamide]
EC50 [1]: 0.61 µM | EC50 [2]: 7.1 µM | EC50 [3]: 0.164 µM

Cc1cnc2nc(-c3cc(NC(=O)c4cnccn4)ccc3Cl)[nH]c2c1 [Compound 206]
EC50 [1]: 1.56 µM | EC50 [2]: 13.4 µM | EC50 [3]: 0.174 µM

Cc1cnc2nc(-c3cc(NC(=O)C4(C)COC4)ccc3Cl)[nH]c2c1 [Compound 163]
EC50 [1]: > 25 µM | EC50 [2]: > 50 µM | EC50 [3]: > 25 µM

Cc1cnc2nc(-c3cc(NS(=O)(=O)c4c(C)noc4C)ccc3Cl)[nH]c2c1 [Compound 253]
EC50 [1]: > 24.9 µM | EC50 [2]: > 28.4 µM | EC50 [3]: > 25 µM

Cc1cnc2nc(-c3cc(NC(=O)Cc4onc5ccccc45)ccc3Cl)[nH]c2c1 [Compound 146]
EC50 [1]: > 25 µM | EC50 [2]: 21.7 µM | EC50 [3]: > 14.2 µM

COc1cc(-c2cnc3nc(-c4cc(NC(=O)c5ccco5)ccc4Cl)[nH]c3c2)ccc1NC(=O)OC(C)(C)C [Compound 34]
EC50 [1]: 0.6 µM | EC50 [2]: 1.79 µM | EC50 [3]: 0.105 µM
